# Values quoted from earlier work, collected in patent US6689338B2, “Bioconjugates of nanoparticles as radiopharmaceuticals” (The Board of Regents for Oklahoma State University, priority 2000, dated 2004).
# System: tumor
# Details: in vivo
compound,measurement,value
O=C([O-])CN(CCN(CC(=O)[O-])CC(=O)[O-])CCN(CC(=O)[O-])CC(=O)[O-].[111In+3].[H+].[H+],liver background,high liver background
